# Literature values, collected in patent US20180272346A1, “MODULAR ORGAN MICROPHYSIOLOGICAL SYSTEM WITH MICROBIOME” (Massachusetts Institute of Technology, priority 2017, published 2018).
# Legend:
# [1] = tested on: human hepatocytes and kupffer cells co-culture
# [2] = tested on: endometrium MPS
# [3] = oral, in vivo; read-out: maximum measured plasma concentration, Cmax
# [4] = tested on: 7-way MPS platform (gut, liver and other MPSs)
# [5] = tested on: immune-competent liver MPS (hepatocytes and Kupffer cells)
# [6] = tested on: immune-competent gut-liver interacted MPS; details: tolcapone added to gut MPS ("oral")
# [7] = tested on: immune-competent gut MPS (Caco2, HT29-MTX, dendritic cells)
compound,measurement,setting,value
"C[C@]12CCC(=O)C=C1CC[C@@H]1[C@@H]2[C@@H](O)C[C@@]2(C)[C@H]1CC[C@]2(O)C(=O)CO [Hydrocortisone (cortisol), Hydrocortisone]",differentiated function,[1]; cocultured liver MPS,enhanced
same,inflammatory response,[1]; cocultured liver MPS,suppressed
same,CYP450 activity,[1]; cultures up to 21 days,sensitive to hydrocortisone levels
"O=C(O)Cc1ccccc1Nc1c(Cl)cccc1Cl [Diclofenac, diclofenac]",function and cellular death,[2],loss of function correlating with cellular death
same,Cmax,[3],2 to 6 µM
same,absorption and distribution across MPS compartments,[4],absorbed across the gut epithelial barrier
same,unbound intrinsic clearance (CL_int(u)),"[4]; diclofenac added to apical side of gut MPS, estimated",13.90 µL/min
same,fraction of clearance towards formation of the 4-OH-DCF metabolite,[4]; estimated,approximately 19%
same,cell death,[5],minimal
Lipopolysaccharide [Lipopolysaccharide (LPS)],lowest LPS stimulus the co-cultures were responsive to,[1]; hepatocyte-Kupffer co-culture,0.01 µg/mL
Cc1ccc(C(=O)c2cc(O)c(O)c([N+](=O)[O-])c2)cc1 [Tolcapone],function and cellular death,[2],loss of function correlating with cellular death
same,MPS-specific cell death markers,[6],suffered from MPS-specific cell death markers
same,generic cell death marker,[6],insensitive
same,gut and liver MPS function,[6],MPS-specific loss of function
same,cell death,[7],severe cellular death
same,epithelial function,[7],complete loss of epithelial function
same,cell death,[5],caused cell death
same,mitochondrial activity,[5],decreased
